Measured values published in PubChem BioAssay AID1963435 (Molecular Pharmacology Branch, DTP, NCI, 2024).
Each block holds one compound with its values, some of them ahead of it.

Test system: PANC-1 complex spheroid growth, percent test/control
Experiment: Anticancer human tumor PANC-1 cell line growth inhibition [Asc];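 note: spheroids exposed to agents for 7 days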;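 for viability, T/C: percent viability relative to DMSO vehicle wells taken as 100%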
Details: for IC50: curve of first compound; for viability, T/C: stronger effect = lower value
In short: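 Concentration series start at each agent's clinical Cmax, or at 10 microM when none is established, and drop in half-log steps; agents are applied alone or together to complex spheroids built with HUVEC and hMSC.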

IC50 (second compound 0.00949 µM): > 1000 nM
IC50 (second compound 0.03 µM): > 1000 nM
IC50 (second compound 0.0949 µM): > 1000 nM
IC50 (second compound 0.3 µM): > 1000 nM
IC50 (second compound 0.949 µM): > 1000 nM
IC50 (second compound 3 µM): > 1000 nM
SMILES: O=C(c1ccc(F)c(F)c1Nc1ccc(I)cc1F)N1CC(O)([C@@H]2CCCCN2)C1 + CCN1C(C(=O)NC23CCC(C(=O)O)(CC2)CC3)C(c2cccc(Cl)c2F)C2(C(=O)Nc3cc(Cl)ccc32)C12CCCCC2
viability, T/C (second compound 0.00949 µM, first compound 0.00316 µM): 90.7%
viability, T/C (second compound 0.00949 µM, first compound 0.01 µM): 93.4%
viability, T/C (second compound 0.00949 µM, first compound 0.0316 µM): 87.1%
viability, T/C (second compound 0.00949 µM, first compound 0.1 µM): 81.8%
viability, T/C (second compound 0.00949 µM, first compound 0.316 µM): 93.1%
viability, T/C (second compound 0.00949 µM, first compound 1 µM): 93.7%
viability, T/C (second compound 0.03 µM, first compound 0.00316 µM): 90.5%
viability, T/C (second compound 0.03 µM, first compound 0.01 µM): 98.3%
viability, T/C (second compound 0.03 µM, first compound 0.0316 µM): 98.5%
viability, T/C (second compound 0.03 µM, first compound 0.1 µM): 87.3%
viability, T/C (second compound 0.03 µM, first compound 0.316 µM): 95%
viability, T/C (second compound 0.03 µM, first compound 1 µM): 97.4%
viability, T/C (second compound 0.0949 µM, first compound 0.00316 µM): 93.9%
viability, T/C (second compound 0.0949 µM, first compound 0.01 µM): 97%
viability, T/C (second compound 0.0949 µM, first compound 0.0316 µM): 88.4%
viability, T/C (second compound 0.0949 µM, first compound 0.1 µM): 84.2%
viability, T/C (second compound 0.0949 µM, first compound 0.316 µM): 92.4%
viability, T/C (second compound 0.0949 µM, first compound 1 µM): 104%
viability, T/C (second compound 0.3 µM, first compound 0.00316 µM): 97.5%
viability, T/C (second compound 0.3 µM, first compound 0.01 µM): 89.4%
viability, T/C (second compound 0.3 µM, first compound 0.0316 µM): 89.6%
viability, T/C (second compound 0.3 µM, first compound 0.1 µM): 91.7%
viability, T/C (second compound 0.3 µM, first compound 0.316 µM): 100%
viability, T/C (second compound 0.3 µM, first compound 1 µM): 93.8%
viability, T/C (second compound 0.949 µM, first compound 0.00316 µM): 100%
viability, T/C (second compound 0.949 µM, first compound 0.01 µM): 104%
viability, T/C (second compound 0.949 µM, first compound 0.0316 µM): 91.8%
viability, T/C (second compound 0.949 µM, first compound 0.1 µM): 105%
viability, T/C (second compound 0.949 µM, first compound 0.316 µM): 104%
viability, T/C (second compound 0.949 µM, first compound 1 µM): 99%
viability, T/C (second compound 3 µM, first compound 0.00316 µM): 110%
viability, T/C (second compound 3 µM, first compound 0.01 µM): 115%
viability, T/C (second compound 3 µM, first compound 0.0316 µM): 106%
viability, T/C (second compound 3 µM, first compound 0.1 µM): 105%
viability, T/C (second compound 3 µM, first compound 0.316 µM): 109%
viability, T/C (second compound 3 µM, first compound 1 µM): 112%

IC50 (second compound 0.00949 µM): > 3000 nM
IC50 (second compound 0.03 µM): > 3000 nM
IC50 (second compound 0.0949 µM): > 3000 nM
IC50 (second compound 0.3 µM): > 3000 nM
IC50 (second compound 0.949 µM): > 3000 nM
IC50 (second compound 3 µM): > 3000 nM
SMILES: Cc1nc(N2CCC3(CC2)COC(C)C3N)c(CO)nc1Sc1ccnc(N)c1Cl (stereo unspecified) + CCN1C(C(=O)NC23CCC(C(=O)O)(CC2)CC3)C(c2cccc(Cl)c2F)C2(C(=O)Nc3cc(Cl)ccc32)C12CCCCC2
viability, T/C (second compound 0.00949 µM, first compound 0.00949 µM): 109%
viability, T/C (second compound 0.00949 µM, first compound 0.03 µM): 95.8%
viability, T/C (second compound 0.00949 µM, first compound 0.0949 µM): 92.8%
viability, T/C (second compound 0.00949 µM, first compound 0.3 µM): 87.7%
viability, T/C (second compound 0.00949 µM, first compound 0.949 µM): 92.1%
viability, T/C (second compound 0.00949 µM, first compound 3 µM): 92.6%
viability, T/C (second compound 0.03 µM, first compound 0.00949 µM): 102%
viability, T/C (second compound 0.03 µM, first compound 0.03 µM): 101%
viability, T/C (second compound 0.03 µM, first compound 0.0949 µM): 98.7%
viability, T/C (second compound 0.03 µM, first compound 0.3 µM): 89.5%
viability, T/C (second compound 0.03 µM, first compound 0.949 µM): 90%
viability, T/C (second compound 0.03 µM, first compound 3 µM): 94.1%
viability, T/C (second compound 0.0949 µM, first compound 0.00949 µM): 103%
viability, T/C (second compound 0.0949 µM, first compound 0.03 µM): 102%
viability, T/C (second compound 0.0949 µM, first compound 0.0949 µM): 98.6%
viability, T/C (second compound 0.0949 µM, first compound 0.3 µM): 92%
viability, T/C (second compound 0.0949 µM, first compound 0.949 µM): 93.7%
viability, T/C (second compound 0.0949 µM, first compound 3 µM): 91.3%
viability, T/C (second compound 0.3 µM, first compound 0.00949 µM): 98.7%
viability, T/C (second compound 0.3 µM, first compound 0.03 µM): 98.1%
viability, T/C (second compound 0.3 µM, first compound 0.0949 µM): 94.5%
viability, T/C (second compound 0.3 µM, first compound 0.3 µM): 96.7%
viability, T/C (second compound 0.3 µM, first compound 0.949 µM): 106%
viability, T/C (second compound 0.3 µM, first compound 3 µM): 99.2%
viability, T/C (second compound 0.949 µM, first compound 0.00949 µM): 113%
viability, T/C (second compound 0.949 µM, first compound 0.03 µM): 91.9%
viability, T/C (second compound 0.949 µM, first compound 0.0949 µM): 108%
viability, T/C (second compound 0.949 µM, first compound 0.3 µM): 101%
viability, T/C (second compound 0.949 µM, first compound 0.949 µM): 108%
viability, T/C (second compound 0.949 µM, first compound 3 µM): 92.9%
viability, T/C (second compound 3 µM, first compound 0.00949 µM): 115%
viability, T/C (second compound 3 µM, first compound 0.03 µM): 116%
viability, T/C (second compound 3 µM, first compound 0.0949 µM): 103%
viability, T/C (second compound 3 µM, first compound 0.3 µM): 108%
viability, T/C (second compound 3 µM, first compound 0.949 µM): 110%
viability, T/C (second compound 3 µM, first compound 3 µM): 103%

IC50 (second compound 0.00316 µM): > 1000 nM
IC50 (second compound 0.01 µM): > 1000 nM
IC50 (second compound 0.0316 µM): > 1000 nM
IC50 (second compound 0.1 µM): > 1000 nM
IC50 (second compound 0.316 µM): > 1000 nM
IC50 (second compound 1 µM): > 1000 nM
SMILES: O=C(c1ccc(F)c(F)c1Nc1ccc(I)cc1F)N1CC(O)([C@@H]2CCCCN2)C1 + CNC(C)C(=O)NC1CN(S(=O)(=O)c2cccc(S(=O)(=O)N3CCC4CCC(C(=O)NC(c5ccccc5)c5ccccc5)N4C(=O)C(NC(=O)C(C)NC)C3)c2)CCC2CCC(C(=O)NC(c3ccccc3)c3ccccc3)N2C1=O
viability, T/C (second compound 0.00316 µM, first compound 0.00316 µM): 98.6%
viability, T/C (second compound 0.00316 µM, first compound 0.01 µM): 88.8%
viability, T/C (second compound 0.00316 µM, first compound 0.0316 µM): 90.1%
viability, T/C (second compound 0.00316 µM, first compound 0.1 µM): 88%
viability, T/C (second compound 0.00316 µM, first compound 0.316 µM): 90.5%
viability, T/C (second compound 0.00316 µM, first compound 1 µM): 84.9%
viability, T/C (second compound 0.01 µM, first compound 0.00316 µM): 104%
viability, T/C (second compound 0.01 µM, first compound 0.01 µM): 86.1%
viability, T/C (second compound 0.01 µM, first compound 0.0316 µM): 89.5%
viability, T/C (second compound 0.01 µM, first compound 0.1 µM): 89%
viability, T/C (second compound 0.01 µM, first compound 0.316 µM): 85.9%
viability, T/C (second compound 0.01 µM, first compound 1 µM): 85.2%
viability, T/C (second compound 0.0316 µM, first compound 0.00316 µM): 88.2%
viability, T/C (second compound 0.0316 µM, first compound 0.01 µM): 86.1%
viability, T/C (second compound 0.0316 µM, first compound 0.0316 µM): 118%
viability, T/C (second compound 0.0316 µM, first compound 0.1 µM): 93.6%
viability, T/C (second compound 0.0316 µM, first compound 0.316 µM): 86.6%
viability, T/C (second compound 0.0316 µM, first compound 1 µM): 87.3%
viability, T/C (second compound 0.1 µM, first compound 0.00316 µM): 101%
viability, T/C (second compound 0.1 µM, first compound 0.01 µM): 86.4%
viability, T/C (second compound 0.1 µM, first compound 0.0316 µM): 90.7%
viability, T/C (second compound 0.1 µM, first compound 0.1 µM): 90.3%
viability, T/C (second compound 0.1 µM, first compound 0.316 µM): 88.4%
viability, T/C (second compound 0.1 µM, first compound 1 µM): 87.3%
viability, T/C (second compound 0.316 µM, first compound 0.00316 µM): 95.2%
viability, T/C (second compound 0.316 µM, first compound 0.01 µM): 89.5%
viability, T/C (second compound 0.316 µM, first compound 0.0316 µM): 98.9%
viability, T/C (second compound 0.316 µM, first compound 0.1 µM): 89.9%
viability, T/C (second compound 0.316 µM, first compound 0.316 µM): 96.8%
viability, T/C (second compound 0.316 µM, first compound 1 µM): 89.3%
viability, T/C (second compound 1 µM, first compound 0.00316 µM): 91.4%
viability, T/C (second compound 1 µM, first compound 0.01 µM): 93%
viability, T/C (second compound 1 µM, first compound 0.0316 µM): 89.7%
viability, T/C (second compound 1 µM, first compound 0.1 µM): 90%
viability, T/C (second compound 1 µM, first compound 0.316 µM): 90.6%
viability, T/C (second compound 1 µM, first compound 1 µM): 91.6%
